Where “and” joins values, the source holds several entries; their conditions need not be identical. Equal entries are not always repeated.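 Abbreviation: GI50, concentration required for 50% inhibition of growth. TGI denotes the concentration required for complete inhibition of growth.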
Assays:
Test in all cases: DTP human tumour cell line panel, 384-well format
[1] = tested on: NCI-H226 lung
[2] = tested on: NCI-H23 lung
[3] = tested on: NCI-H322M lung
[4] = tested on: NCI-H460 NSCLC
[5] = tested on: NCI-H522 lung
[6] = tested on: NCI/ADR-RES ovarian
[7] = tested on: OVCAR-3 ovarian
[8] = tested on: OVCAR-4 ovarian
[9] = tested on: OVCAR-5 ovarian
[10] = tested on: OVCAR-8 ovarian
[11] = tested on: PC-3 prostate
[12] = tested on: RPMI-8226 leukemia
[13] = tested on: RXF 393 renal
[14] = tested on: SF-268 CNS
[15] = tested on: SF-295 CNS
[16] = tested on: SF-539 CNS
[17] = tested on: SK-MEL-28 melanoma
[18] = tested on: SK-MEL-5 melanoma
[19] = tested on: SK-OV-3 ovarian
[20] = tested on: SN12C renal
[21] = tested on: SNB-19 CNS
[22] = tested on: SNB-75 CNS
[23] = tested on: SR leukemia
[24] = tested on: SW-620 colon
[25] = tested on: T-47D breast
[26] = tested on: TK-10 renal
[27] = tested on: U251 glioblastoma
[28] = tested on: UACC-257 melanoma
[29] = tested on: UACC-62 melanoma
[30] = tested on: UO-31 renal

With `Cn1cc(-c2nc(N[C@@H]3CCCC[C@@H]3N)c(F)c3c2C(=O)NC3)cn1` the TGI [1] was 7.05 µM and 27.9 µM, the GI50 [2] was 2.17 µM and 4.29 µM and the TGI [2] was 13 µM and 17.5 µM. The GI50 [3] was 15.5 µM and 28.7 µM, the TGI [3] was 38.9 µM and > 100 µM and the GI50 [4] was 2.61 µM and 3.15 µM. The TGI [4] was 13.5 µM and 14.3 µM, the GI50 [5] was 1.64 µM and 3.56 µM and the TGI [5] was 6.01 µM and 15.4 µM. For the same molecule, the GI50 [6] was 38.8 µM and > 100 µM, the TGI [6] was over 100 µM and the GI50 [7] was 9.28 µM and 9.39 µM. The TGI [7] was 24.7 µM and 34.3 µM, the GI50 [8] was 15.2 µM and 21.4 µM and the TGI [8] was 30.5 µM and 43.7 µM. For the same molecule, the GI50 [9] was 6.09 µM, the TGI [9] was 21.6 µM and the GI50 [10] was 6.08 µM and 12.2 µM. The TGI [10] was 19.4 µM and 25.2 µM, the GI50 [11] was 9.39 µM and 15.4 µM and the TGI [11] was 45.3 µM and 86.9 µM. For the same molecule, the GI50 [12] was 0.537 µM and 1.52 µM, the TGI [12] was 2.19 µM and 4.13 µM and the GI50 [13] was 0.596 µM and 2.12 µM. For the same molecule, the TGI [13] was 3.57 µM and 13 µM, the GI50 [14] was 2.79 µM and 9.19 µM and the TGI [14] was 15.2 µM and 45.5 µM. For the same molecule, the GI50 [15] was 0.675 µM and 3.12 µM, the TGI [15] was 2.81 µM and 11.7 µM and the GI50 [16] was 1.35 µM and 3.09 µM. The TGI [16] was 3.56 µM and 13 µM, the GI50 [17] was 10.2 µM and 11.2 µM and the TGI [17] was 66.1 µM and > 100 µM. The TGI [18] was 17.8 µM and 34.5 µM, the GI50 [19] was 2.07 µM and 10.8 µM and the TGI [19] was 21.5 µM and 65.8 µM. The GI50 [20] was 2.09 µM and 1.95 µM, the TGI [20] was 10.9 µM and 7.66 µM and the GI50 [21] was 17.8 µM and 19.4 µM. The TGI [21] was 33.7 µM and 39.1 µM, the GI50 [22] was 1.88 µM and 5.16 µM and the TGI [22] was 4.98 µM and 19.4 µM. The GI50 [23] was 0.535 µM and 0.17 µM, the TGI [23] was 1.78 µM and 0.447 µM and the GI50 [24] was 2.37 µM and 5.69 µM. For the same molecule, the TGI [24] was 7.78 µM and 25.8 µM, the GI50 [25] was 32.5 µM and 56.3 µM and the TGI [25] was 85.3 µM and > 100 µM. For the same molecule, the GI50 [26] was 3.87 µM and 12.1 µM, the TGI [26] was 17.5 µM and 26.9 µM and the GI50 [27] was 14.2 µM and 17.6 µM. The TGI [27] was 27.9 µM and 32.8 µM, the GI50 [28] was 12.8 µM and 33.7 µM and the TGI [28] was 33.4 µM and > 100 µM. For the same molecule, the GI50 [29] was 13.3 µM, the TGI [29] was 39.5 µM and the GI50 [30] was 7.89 µM and 11 µM. For the same molecule, the TGI [30] was 20.5 µM and 23.2 µM.
